Laboratory results from patent US5332740A, “DC-89 derivatives” (priority 1990, dated 1994).

Columns and labels:
[1] = system: melanoma B-16; settings: against melanoma B-16; cited from earlier work
[2] = system: various bacteria; settings: against various bacteria; cited from earlier work
[3] = system: ddY-strain male mice; assay: Acute Toxicity Test; type: in vivo; settings: intraperitoneal; mortality observed for 14 days after the administration
Description: A test compound was intraperitoneally administered to ddY-strain male mice each weighing 20±1 g. MLD (the minimum lethal dose) was determined by observing the mortality for 14 days after the administration.

[4] = system: Sarcoma 180 tumor; assay: Therapeutic Effect against Sarcoma 180 Tumor; type: in vivo, male ddY-strain mice; settings: single intravenous, average tumor volume treated/control, seven days after implantation
Description: Therapeutic Effect against Sarcoma 180 Tumor
Five male ddY-strain mice each having a weight of 18 to 20 g were used for each group as test animals, and 5×10^5 Sarcoma 180 tumor cells were implanted subcutaneously into the animals at the axilla. One day after the implantation, 0.2 ml of physiological saline containing Compound (I) at the concentration indicated in Table 3 was intravenously administered to each mouse. T/C [T: average tumor volume (mm^3) of the group treated with the test compound, C: that of the control group which received an intravenous administration of 0.2 ml of physiological saline] was determined seven days after the implantation.

SMILES | anti-tumor activity [1] | antibacterial activity [2] | Acute Toxicity (MLD), minimum lethal dose [3] [mg/kg] | further results
COC(=O)C1(C)Nc2c(O)cc3c(c2C1=O)C(CCl)CN3C(=O)c1cc2cc(OC)c(OC)c(OC)c2[nH]1 (stereo not shown) [DC-89A2] | show an anti-tumor activity against melanoma B-16 | exhibit an antibacterial activity against various bacteria |  | 
COc1cc2cc(C(=O)N3CC(Cl)Cc4c3cc(O[Si](C)(C)C(C)(C)C)c3[nH]c(C)cc43)[nH]c2c(OC)c1OC (stereo not shown) [Compound 11] |  |  | > 8.0 | 
COC(=O)C1(C)Nc2c(O)cc3c(c2C1=O)C(CBr)CN3C(=O)c1cc2cc(OC)c(OC)c(OC)c2[nH]1 (stereo not shown) [DC-89B2] | show an anti-tumor activity against melanoma B-16 | exhibit an antibacterial activity against various bacteria |  | 
COc1cc2cc(C(=O)N3CC(Br)Cc4c3cc(OC(=O)N(C)C)c3[nH]c(C)cc43)[nH]c2c(OC)c1OC (stereo not shown) [Compound 9] |  |  | 0.50 | T/C ([4]; dose 0.25 mg/kg): 0.15; T/C ([4]; dose 0.50 mg/kg): 0.068
COC(=O)C1(C)Nc2c(OC(=O)N3CCN(CCN)CC3)cc3c(c2C1=O)CC(Br)CN3C(=O)c1cc2cc(OC)c(OC)c(OC)c2[nH]1 (stereo not shown) [Compound 3] |  |  | 2.0 | T/C ([4]; dose 0.50 mg/kg): 0.25; T/C ([4]; dose 1.0 mg/kg, 1 mg/kg): 0.094
COC(=O)c1c(C)[nH]c2c(O[Si](C)(C)C(C)(C)C)cc3c(c12)CC(Cl)CN3C(=O)c1cc2cc(OC)c(OC)c(OC)c2[nH]1 (stereo not shown) [Compound 10] |  |  | > 8.0 | 
COC(=O)C1(C)NC2=C(C1=O)C13CC1CN(C(=O)c1cc4cc(OC)c(OC)c(OC)c4[nH]1)C3=CC2=O (stereo not shown) [DC-88A] | exhibits an anti-tumor activity against melanoma B-16 | shows an antibacterial activity against a variety of bacteria |  | 
COc1cc2cc(C(=O)N3CC(Br)Cc4c3cc(O[Si](C)(C)C(C)(C)C)c3[nH]c(C)cc43)[nH]c2c(OC)c1OC (stereo not shown) [Compound 8] |  |  | 8.0 | T/C ([4]; dose 2.0 mg/kg): 0.19
COC(=O)C1(C)Nc2c(OC(=O)N3CCC(N4CCCCC4)CC3)cc3c(c2C1=O)CC(Br)CN3C(=O)c1cc2cc(OC)c(OC)c(OC)c2[nH]1 (stereo not shown) [Compound 5] |  |  | 2.0 | 
COC(=O)c1c(C)[nH]c2c(O[Si](C)(C)C(C)(C)C)cc3c(c12)CC(Br)CN3C(=O)c1cc2cc(OC)c(OC)c(OC)c2[nH]1 (stereo not shown) [Compound 7] |  |  | 4.0 | T/C ([4]; dose 1.0 mg/kg): 0.13; T/C ([4]; dose 2.0 mg/kg): 0.025
COC(=O)C1(C)Nc2c(O)cc3c(c2C1=O)CC(Br)CN3C(=O)c1cc2cc(OC)c(OC)c(OC)c2[nH]1 (stereo not shown) [DC-89B1] | show an anti-tumor activity against melanoma B-16 | exhibit an antibacterial activity against various bacteria |  | 
COC(=O)C1(C)Nc2c(O)cc3c(c2C1=O)CC(Cl)CN3C(=O)c1cc2cc(OC)c(OC)c(OC)c2[nH]1 (stereo not shown) [DC-89A1] | show an anti-tumor activity against melanoma B-16 | exhibit an antibacterial activity against various bacteria |  | 
COC(=O)C1(C)Nc2c(OC(=O)N3CCN(C)CC3)cc3c(c2C1=O)CC(Cl)CN3C(=O)c1cc2cc(OC)c(OC)c(OC)c2[nH]1 (stereo not shown) [Compound 14] |  |  | > 16 | 
COC(=O)C1(C)Nc2c(OC(=O)N3CCN(C)CC3)cc3c(c2C1=O)CC(Br)CN3C(=O)c1cc2cc(OC)c(OC)c(OC)c2[nH]1 (stereo not shown) [Compound 2] |  |  | 5.2 | T/C ([4]; dose 1.0 mg/kg): 0.19; T/C ([4]; dose 2.0 mg/kg): 0.083
COC(=O)C1(C)Nc2c(OC(=O)N3CCN(CCN)CC3)cc3c(c2C1=O)CC(Br)CN3C(=O)c1cc2cc(OC)c(OC)c(OC)c2[nH]1 (stereo not shown) [Compound 4] |  |  | 2.0 | T/C ([4]; dose 1.0 mg/kg, 1 mg/kg): 0.047
COC(=O)C1(C)Nc2c(OC(=O)N3CCC(N4CCCCC4)CC3)cc3c(c2C1=O)CC(Br)CN3C(=O)c1cc2cc(OC)c(OC)c(OC)c2[nH]1 (stereo not shown) [Compound 6] |  |  | 4.0 | 
